From US20230382916A1, “HETEROARYL HETEROCYCLIC COMPOUNDS AND USES THEREOF” (HUTCHISON MEDIPHARMA LIMITED, priority 2020, published 2023)

Columns and labels:
BTK recombinant protein = BTK recombinant protein (Homo sapiens (Human), UniProt Q06187); assay: Determination of biochemical BTK (Z'-LYTE kinase assay); conditions: 32 μM ATP
Text: BTK recombinant protein: Invitrogen, Cat #PV3363;
Z′-LYTE® kinase test kit-tyrosine 1 peptide: Invitrogen, Cat #PV3190;
Z′-LYTE® biochemical assay employs a fluorescence resonance energy transfer (FRET)-based, coupled-enzyme format and is based on the differential sensitivity of phosphorylated and non-phosphorylated peptides to proteolytic cleavage. Both ends of the short peptide substrate are labeled with two fluorescent groups to form a FRET paired combination. In the primary reaction (the Kinase Reaction), the kinase transfers the γ-phosphate of ATP to a single […] residue on the short peptide substrate. In the secondary reaction (the development reaction), the non-phosphorylated short peptides were recognized and cleaved by a site-specific protease (the development reagent). Phosphorylated short peptides can resist such cleavage. Cleavage of short peptides can disrupt the donor (such as coumarin) and receptor fluorophores (fluorescein) on the short peptides, while the phosphorylated short peptides can maintain FRET. The calculation method of the ratio is as follows, and the ratio of the respective emission signals generated by the donor fluorophores emitted (after excitation at 400 nm) to the receptors is calculated. Emission signal ratio=emitted light by coumarin (445 nm)/emitted light by fluorescein (520 nm). If the FRET short peptide is phosphorylated (such as no kinase inhibitor), the emitted light ratio will remain in a lower level. If the FRET short peptide is non-phosphorylated (such as kinase inhibitor), the emitted light ratio will be in a higher level. In this way, the inhibitory effects of different compound inhibitors on BTK kinase activity would be distinguished.
The experiment was carried out according to the instructions of the Z′-LYTE® kinase test kit-tyrosine 1 peptide. Reagent preparation: 1.33× kinase buffer: 5× kinase buffer was diluted with water to 1.33× kinase buffer; an enzyme solution: the kinase was dissolved in 1.33× kinase buffer with the final working concentration being 3.32 nM; a short peptide solution: a short peptide stock solution (1 mM dissolved in DMSO) was dissolved in 1.33× kinase buffer with the final working concentration being 2 μM; Z′-LYTE Tyr01 phosphorylated short peptide solution, 0.6 μl of stock solution (1 mM dissolved in DMSO) was dissolved in 149.4 μl of 1.33× kinase buffer; an ATP solution: an ATP stock solution (10 mM aqueous solution) was dissolved in 1.33× kinase buffer with the final working concentration being 32 μM; a color-developing solution: color-developing solution B was dissolved in color-developing buffer with the final working concentration being 1× color-developing solution; 4× compound preparation: the compound was diluted in 3-fold gradient concentration to finally obtain 4% DMSO aqueous solution containing different concentrations of the compound, with the final working concentration being 3000, 1000, 333.33, 111.11, 37.04, 12.35, 4.12, 1.37 nM, 8 concentration points in total.
Specific steps of the experiment: In the experiment, there were three control groups, each with 8 replicate wells, which were C1 100% inhibition group (no ATP), C2 0% inhibition group (with ATP), and C3 100% phosphorylation group, respectively. 2.5 μl of serially diluted compound was added to each well of a 384-well plate, with double replicate wells, and 4% DMSO solution was added to wells C1, C2, and C3. After that, except for wells C3, 2.5 μl of BTK enzyme solution was added to each remaining well, which was left to stand at 4° C. for 30 minutes. After that, except for wells C3, 2.5 μl of short peptide solution was added to each well, and 5 μl of phosphorylated short peptide solution was added to each of wells C3. 2.5 μl of 1.33× kinase buffer was added to each of wells C1 and C3, and 2.5 μl of ATP solution was added to each of the remaining wells. The wells were centrifuged transiently, and the plate was shaken at 1000 rpm for 30 seconds to perform transient centrifuge. […]

[1] = Stability test in liver microsomes (rat); format: in vitro ADME; conditions: rat liver microsomes 0.5 mg/mL, 1 μM compound
Protocol: (§1) Both male CD-1 mouse pooled liver microsomes and male SD rat pooled liver microsomes were purchased from BioreclamationIVT Corporation, USA.
(§2) The test compound stock solution was diluted with an organic solvent (usually a mixture of acetonitrile, methanol and water with various ratios, depending on the solubility of the compound, if necessary, 1 N hydrochloric acid or 1 N sodium hydroxide would be added to facilitate solubilization) to the 0.1 mM (the final concentration of the compound in the reaction system was 1 μM) and the concentration percentage of the organic solvents in the incubation system no more than 1% (wherein the percentage of DMSO was required to be no more than 0.1%). An appropriate amount of 100 mM NADP, 500 mM G-6-P and 100 Unit/mL G-6-PDH were mixed and diluted with ultrapure water (the final system contains 1 mM NADP, 5 mM G-6-P and 1 Unit/mL G-6-PDH), pre-incubated in a 37° C. water bath for 10 minutes and then placed on ice for use as a NADPH regeneration solution. 20 mg/mL liver microsomes solution and 200 mM phosphate buffer were mixed, and diluted with ultrapure water to give a liver microsomes solution containing 2.5 mg/mL liver microsomes (the final concentration of the reaction system is 0.5 mg/mL) and 50 mM phosphate buffer. The diluted liver microsomes solution was mixed with 0.1 mM compound solution, a mixture of 100 mM EDTA, 300 mM MgCl2 solution, 200 mM phosphate buffer (the final system was 3 mM MgCl2, 1 mM EDTA and 50 mM phosphate buffer) and water in an appropriate volume was added. Finally, the NADPH regeneration solution was added, then the reaction solution was placed in a 37° C. water bath to start the reaction (the reaction time was 30 minutes), and the reaction was stopped by adding the ice-cold acetonitrile reaction stopping solution containing the internal standard. The 0-minute sample was not incubated in a 37° C. water bath, and its difference from the 30-minute sample further lies in that the ice-cold acetonitrile reaction stopping solution containing the internal standard was added first, and then the NADPH regeneration solution was added. The sample added with the reaction stopping internal standard solution was vortexed and mixed well, and then centrifuged at 4400 rpm for 10 minutes. The supernatant was taken and diluted ten times with 50% methanol for LC-MS/MS analysis.
(§3) LC-MS/MS was used to determine the concentration of the compound in the sample. The percentage of the remaining compound after 30 minutes of incubation comparing with that in the 0-minute sample was calculated using the peak area ratio of the compound to the internal standard as an indicator, to evaluate the metabolic stability of the compound.

[2] = Stability test in liver microsomes (mouse); format: in vitro ADME; conditions: mouse liver microsomes 0.5 mg/mL, 1 μM compound
Protocol: as §1, §2, §3

[3] = tested on: anti-IgD antibody-induced B cell activation in mice whole blood; assay: In vivo efficacy of the inhibitory effect on BTK target: anti-IgD antibody-induced B cell activation in mice whole blood after oral dosing; set-up: species or system mouse; conditions: 20 mg/kg oral single dose, 16 h
Protocol: Objects: B cells in mice whole blood were induced and activated by the anti-IgD antibody, and the inhibitory effect of the compound of the present invention on B cell activation in vivo was studied, so as to determine the inhibitory effect of the compound of the present invention on the BTK target in vivo.
Methods: C57BL/6 mice (female, 18-20 g, purchased from Shanghai Lingchang Biotechnology Co., Ltd.) were grouped according to Table 1.
The animals of each group were administered, then were placed in CO2 for anesthesia at designated time points, blood samples were taken from […] via retro-orbital bleeding, and heparin was used for anticoagulation; 90 μL of whole blood was taken from mice of each group, and added to a 96 well culture plate, and anti-mouse IgD antibody (BIO-RAD, Cat #MCA4693) was added to each well to a final concentration of […] (respectively for each drug-treated group and anti-IgD antibody-inducted vehicle group); in addition, 90 μL of whole blood of mice in the vehicle group was taken and added to the 96-well culture plate, and PBS (phosphate buffer, GIBCO, Cat #C20012500BT) was added to each well to a final concentration of 0.01 μg/L (namely, the vehicle control group); Each group was mixed well and incubated in a 37° C./5% CO2 incubator for 4 hours. In addition, the blood of mice in the drug-treated group was centrifuged to separate plasma for blood concentration analysis.
B cell activation ratio=percentage of CD69^+CD19^+ double positive B cells/percentage of CD19^+ single positive B cells
Inhibition ratio=(percentage of B cell activation ratio in anti-IgD antibody-induced vehicle group−percentage of B cell activation ratio in drug-treated group)/(percentage of B cell activation ratio in anti-IgD antibody−induced vehicle group-percentage of B cell activation ratio in vehicle control group)×100%
All data are represented by mean±standard error. For the comparison between each drug-treated group and the anti-IgD antibody-induced vehicle group, p value was calculated by Graphpad Prism using one-way ANOVA analysis of variance and Dunnett's test, and for the comparison between each drug-treated group, p value was calculated by using unpaired t test.

[4] = tested on: rat arthritis model induced by type II collagen; assay: Rat arthritis model induced by type II collagen (CIA), paw volume; format: in vivo; conditions: for inhibition ratio of area under the curve (IRAUC) of paw swelling: Day 13 to Day 19
Protocol: An appropriate amount of bovine type II collagen (CII, Chondrex (Redmond, WA, USA), Cat #20021) was weighed and dissolved in 0.1 mole of acetic acid (SPGC Sinopharm Chemical Reagent Co., Ltd (Shanghai, P.R. China), Cat #: 10000218.), which was formulated into a solution with a concentration of 6 mg/mL, stirred at 4° C. overnight, and added with an equal volume of Freund's incomplete adjuvant (Sigma-Aldrich. (St. Louis, MO, USA), Cat #: SLBW0366.), fully emulsified to prepare an emulsion with a CII concentration of 3 mg/mL.
Female Lewis rats were purchased from Beijing Vital River Laboratory Animal Technology Co., Ltd. (certificate number 20200928Aazz0619000579, initial body weight of 110-130 grams), and 6 rats were randomly selected as a normal group; and all of the remaining rats were immunized. In the first immunization on day 0, the rats except those in the normal group were anesthetized with isoflurane (Hebei Yipin Pharmaceutical Co., Ltd., Lot: C002170601.), and then disinfected with 75% alcohol, and 0.2 mL of emulsion was injected intradermally at the base of the tail thereof. A second challenge was carried out on day 7, and 0.2 mL of emulsion was intradermally injected using the same method. Once the animals developed symptoms on day 10, the incidence conditions thereof were closely monitored.
After grouping, the normal group was not administered, and the rats in the other groups were administered with the control vehicle, 0.25 mg/kg and 4 mg/kg of the reference GDC-0853, and each dose of compound 1 orally once a day until the end of the experiment.
The paw volume was measured on day 10 after immunization, and the left and right hind paw volumes (V) were measured every day after the paw volume increase was detected.
The arthrosis paw volumes of the left and right hind limbs of each animal were measured, and the average paw volume (APV) was calculated according to the following formula:
Average paw volume APV=(Vleft+Vright)/2
The average arthrosis paw volume of each animal before administration was used as the baseline (or considered […] of inflammation). The averaged paw swelling (APS) of each animal is calculated according to the following formula, wherein, APVd1 is the average paw volume of the animal administered on day 1, and APVdt is the average paw volume of the animal administered on day t:
The averaged paw swelling APSdt=(APVdt−APVd1)
The area under the curve (AUC) of the average paw volume swelling is the area under the curve of the arthrosis score swelling calculated by the trapezoid method, and the calculation formula is:
AUCAPS=½×(APSd1+APSd2)×(d2−d1)+½×(APSd2+APSd3)×(d3−d2)+ . . . +½×(APSdn+APSd(n-1))×(dn−dn-1).
Inhibition ratio IRAUC%=(Mean AUCAPS in the model group−AUCAPS in the drug-treated group)/(Mean AUCAPS in the model group−Mean AUCAPS in the normal group)×100%.

BTK recombinant protein, sequence (Q06187 whole entry): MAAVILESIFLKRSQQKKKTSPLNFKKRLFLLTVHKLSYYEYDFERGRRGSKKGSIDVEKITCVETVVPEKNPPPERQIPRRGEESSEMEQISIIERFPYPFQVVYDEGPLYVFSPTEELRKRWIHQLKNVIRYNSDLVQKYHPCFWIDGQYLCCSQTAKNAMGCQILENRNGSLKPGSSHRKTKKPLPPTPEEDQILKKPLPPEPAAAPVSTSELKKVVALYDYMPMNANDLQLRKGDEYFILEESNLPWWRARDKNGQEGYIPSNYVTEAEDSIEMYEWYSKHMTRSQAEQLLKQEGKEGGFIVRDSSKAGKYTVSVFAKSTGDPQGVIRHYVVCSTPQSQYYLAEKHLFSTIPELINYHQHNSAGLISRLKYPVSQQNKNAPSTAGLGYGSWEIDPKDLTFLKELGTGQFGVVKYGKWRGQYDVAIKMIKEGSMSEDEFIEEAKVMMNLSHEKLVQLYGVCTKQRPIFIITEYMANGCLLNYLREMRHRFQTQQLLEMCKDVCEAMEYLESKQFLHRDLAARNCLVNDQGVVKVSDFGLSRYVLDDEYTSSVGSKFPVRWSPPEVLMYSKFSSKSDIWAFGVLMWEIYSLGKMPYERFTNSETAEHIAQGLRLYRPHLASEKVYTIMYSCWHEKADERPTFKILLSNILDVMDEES

Compound	IC50 (BTK recombinant protein)	RLM, percentage of the remaining compound after 30 minutes of incubation [1]	MLM, percentage of the remaining compound after 30 minutes of incubation [2]	Inhibition ratio (%) on B cell activation [3]	B cell activation ratio (the population of activated B cells in total B cells) ([3]; mean ± standard error)	effect on paw volume compared with vehicle control group ([4]; 0.25 mg/kg oral QD)	inhibition ratio of area under the curve (IRAUC) of paw swelling ([4]; 0.25 mg/kg oral QD)	effect on paw volume compared with vehicle control group ([4]; 4 mg/kg oral QD)	inhibition ratio of area under the curve (IRAUC) of paw swelling ([4]; 4 mg/kg oral QD)
C[C@H]1CN(C2COC2)C[C@H](C)N1c1ccc(Nc2cc(-c3ccnc(-n4ncn5c6c(cc5c4=O)CC(C)(C)C6)c3CO)cn(C)c2=O)nc1 [Compound 4, 2-(5-((5-((2S,6S)-2,6-dimethyl-4-(oxetan-3-yl)piperazin-1-yl)pyridin-2-yl)amino)-3′-(hydroxymethyl)-1-methyl-6-oxo-1,6-dihydro-[3,4′-bipyridin]-2′-yl)-7,7-dimethyl-7,8-dihydro-2H-cyclopenta[4,5]pyrrolo[1,2-d][1,2,4]triazin-1(6H)-one]	5 nM	97.4%	90.9%	–	–	–	–	–	–
C[C@H]1CNC[C@H](C)N1c1ccc(Nc2cc(-c3ccnc(-n4ccn5c6c(cc5c4=O)CC(C)(C)C6)c3CO)cn(C)c2=O)nc1 [Compound 5, 2-(5-((5-((2S,6S)-2,6-dimethylpiperazin-1-yl)pyridin-2-yl)amino)-3′-(hydroxymethyl)-1-methyl-6-oxo-1,6-dihydro-[3,4′-bipyridin]-2′-yl)-7,7-dimethyl-7,8-dihydro-2H-cyclopenta[4,5]pyrrolo[1,2-a]pyrazin-1(6H)-one]	8 nM	95.4%	67.5%	–	–	–	–	–	–
C[C@H]1CN(C2COC2)CCN1c1ccc(Nc2cc(-c3ccnc(N4CCn5c(cc6c5CC(C)(C)C6)C4=O)c3CO)cn(C)c2=O)nc1 [GDC-0853, fenebrutinib, reference compound]	–	81.0%	76.3%	9%	29.3 ± 6.7	no improvement effect	−6.4%	significantly reduced	144.7%
